Test results reported in the supplement of paper PMC10307832.

Assays:
Experiment in all cases: relative viability (nuclei count vs DMSO), 5 days (fraction); higher = more cells survive
[1] = test system: NCI-H1915
Procedure, shortened: (§1)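 Lung cancer cell lines in 1536-well plates got either a single drug or a fixed anchor-drug dose together with five library-drug doses (not always all listed) in √10 steps, by pin tool, on the day after seeding. Nuclei were counted after 5 days, and relative viability is the treated-to-vehicle ratio of nuclei counts. Values are medians of duplicate plates.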

[2] = test system: NCI-H1734
Procedure, shortened: as §1

[3] = test system: NCI-H661
Procedure, shortened: as §1

[4] = test system: HCC-44
Procedure, shortened: as §1

[5] = test system: EKVX
Procedure, shortened: as §1

[6] = test system: HOP-62
Procedure, shortened: as §1

[7] = test system: NCI-H2087
Procedure, shortened: as §1

[8] = test system: LOU-NH91
Procedure, shortened: as §1

[9] = test system: SK-MES-1
Procedure, shortened: as §1

[10] = test system: NCI-H358
Procedure, shortened: as §1

[11] = test system: ChaGo-K-1
Procedure, shortened: as §1

[12] = test system: HCC-78
Procedure, shortened: as §1

[13] = test system: HCC-366
Procedure, shortened: as §1

[14] = test system: EPLC-272H
Procedure, shortened: as §1

[15] = test system: NCI-H2023
Procedure, shortened: as §1

[16] = test system: NCI-H1650
Procedure, shortened: as §1

[17] = test system: NCI-H3122
Procedure, shortened: as §1

[18] = test system: NCI-H1395
Procedure, shortened: as §1

[19] = test system: COR-L23
Procedure, shortened: as §1

[20] = test system: NCI-H650
Procedure, shortened: as §1

[21] = test system: A-427
Procedure, shortened: as §1

[22] = test system: NCI-H596
Procedure, shortened: as §1

[23] = test system: NCI-H838
Procedure, shortened: as §1

How did the relative viability ([1]; first compound 0.08 µM) turn out when Cc1cnc(-c2cnc(NCCNc3ccc(C#N)cn3)nc2-c2ccc(Cl)cc2Cl)[nH]1 + Cc1cc(Nc2cc(N3CCN(C)CC3)nc(Sc3ccc(NC(=O)C4CC4)cc3)n2)n[nH]1 [Tozasertib] (partner 0.1 µM) was run?
The relative viability was 0.404.

What about the relative viability ([1]; first compound 0.253 µM) of the same compound?
Its relative viability is 0.322.

And the relative viability ([1]; first compound 0.8 µM)?
Its relative viability is 0.342.

And the relative viability ([1]; first compound 2.53 µM)?
The relative viability was 0.374.

And the relative viability ([2]; first compound 0.08 µM)?
The relative viability was 0.314.

And the relative viability ([2]; first compound 0.253 µM)?
Its relative viability is 0.253.

What about the relative viability ([2]; first compound 0.8 µM) of the same compound?
Its relative viability is 0.261.

And the relative viability ([2]; first compound 2.53 µM)?
The relative viability was 0.247.

And the relative viability ([3]; first compound 0.08 µM)?
Its relative viability is 0.361.

And the relative viability ([3]; first compound 0.253 µM)?
Its relative viability is 0.378.

What about the relative viability ([3]; first compound 0.8 µM) of the same compound?
The relative viability was 0.363.

And the relative viability ([3]; first compound 2.53 µM)?
Its relative viability is 0.341.

And the relative viability ([4]; first compound 0.08 µM)?
The relative viability was 1.04.

And the relative viability ([4]; first compound 0.253 µM)?
The relative viability was 0.746.

And the relative viability ([4]; first compound 0.8 µM)?
The relative viability was 0.676.

And the relative viability ([4]; first compound 2.53 µM)?
Its relative viability is 0.781.

What about the relative viability ([5]; first compound 0.08 µM) of the same compound?
Its relative viability is 0.408.

What about the relative viability ([5]; first compound 0.253 µM) of the same compound?
Its relative viability is 0.357.

And the relative viability ([5]; first compound 0.8 µM)?
Its relative viability is 0.347.

And the relative viability ([5]; first compound 2.53 µM)?
Its relative viability is 0.335.

What about the relative viability ([6]; first compound 0.08 µM) of the same compound?
The relative viability was 0.321.

And the relative viability ([6]; first compound 0.253 µM)?
Its relative viability is 0.353.

And the relative viability ([6]; first compound 0.8 µM)?
The relative viability was 0.36.

What about the relative viability ([6]; first compound 2.53 µM) of the same compound?
Its relative viability is 0.288.

What about the relative viability ([7]; first compound 0.08 µM) of the same compound?
Its relative viability is 0.249.

What about the relative viability ([7]; first compound 0.253 µM) of the same compound?
Its relative viability is 0.203.

And the relative viability ([7]; first compound 0.8 µM)?
Its relative viability is 0.211.

What about the relative viability ([7]; first compound 2.53 µM) of the same compound?
Its relative viability is 0.128.

What about the relative viability ([8]; first compound 0.08 µM) of the same compound?
Its relative viability is 0.648.

And the relative viability ([8]; first compound 0.253 µM)?
The relative viability was 0.605.

And the relative viability ([8]; first compound 0.8 µM)?
Its relative viability is 0.656.

What about the relative viability ([8]; first compound 2.53 µM) of the same compound?
The relative viability was 0.633.

And the relative viability ([9]; first compound 0.08 µM)?
The relative viability was 0.964.

And the relative viability ([9]; first compound 0.253 µM)?
The relative viability was 0.854.

And the relative viability ([9]; first compound 0.8 µM)?
Its relative viability is 0.999.

And the relative viability ([9]; first compound 2.53 µM)?
Its relative viability is 0.861.

And the relative viability ([10]; first compound 0.08 µM)?
Its relative viability is 0.101.

And the relative viability ([10]; first compound 0.253 µM)?
The relative viability was 0.0983.

What about the relative viability ([10]; first compound 0.8 µM) of the same compound?
Its relative viability is 0.137.

And the relative viability ([10]; first compound 2.53 µM)?
The relative viability was 0.11.

And the relative viability ([11]; first compound 0.08 µM)?
The relative viability was 0.241.

And the relative viability ([11]; first compound 0.253 µM)?
The relative viability was 0.215.

What about the relative viability ([11]; first compound 0.8 µM) of the same compound?
The relative viability was 0.231.

And the relative viability ([11]; first compound 2.53 µM)?
The relative viability was 0.22.

What about the relative viability ([12]; first compound 0.08 µM) of the same compound?
Its relative viability is 0.482.

What about the relative viability ([12]; first compound 0.253 µM) of the same compound?
The relative viability was 0.311.

What about the relative viability ([12]; first compound 0.8 µM) of the same compound?
Its relative viability is 0.428.

And the relative viability ([12]; first compound 2.53 µM)?
Its relative viability is 0.384.

What about the relative viability ([13]; first compound 0.08 µM) of the same compound?
Its relative viability is 0.0773.

What about the relative viability ([13]; first compound 0.253 µM) of the same compound?
Its relative viability is 0.0701.

What about the relative viability ([13]; first compound 0.8 µM) of the same compound?
The relative viability was 0.071.

And the relative viability ([13]; first compound 2.53 µM)?
The relative viability was 0.0493.

And the relative viability ([14]; first compound 0.08 µM)?
Its relative viability is 0.321.

What about the relative viability ([14]; first compound 0.253 µM) of the same compound?
The relative viability was 0.255.

What about the relative viability ([14]; first compound 0.8 µM) of the same compound?
Its relative viability is 0.249.

And the relative viability ([14]; first compound 2.53 µM)?
The relative viability was 0.197.

What about the relative viability ([15]; first compound 0.08 µM) of the same compound?
The relative viability was 0.353.

And the relative viability ([15]; first compound 0.253 µM)?
The relative viability was 0.362.

And the relative viability ([15]; first compound 0.8 µM)?
The relative viability was 0.325.

And the relative viability ([15]; first compound 2.53 µM)?
The relative viability was 0.181.

And the relative viability ([16]; first compound 0.08 µM)?
Its relative viability is 0.476.

And the relative viability ([16]; first compound 0.253 µM)?
Its relative viability is 0.43.

And the relative viability ([16]; first compound 0.8 µM)?
Its relative viability is 0.353.

And the relative viability ([16]; first compound 2.53 µM)?
The relative viability was 0.229.

What about the relative viability ([17]; first compound 0.08 µM) of the same compound?
Its relative viability is 0.414.

What about the relative viability ([17]; first compound 0.8 µM) of the same compound?
The relative viability was 0.392.

What about the relative viability ([17]; first compound 2.53 µM) of the same compound?
The relative viability was 0.33.

What about the relative viability ([18]; first compound 0.08 µM) of the same compound?
The relative viability was 0.778.

What about the relative viability ([18]; first compound 0.253 µM) of the same compound?
The relative viability was 0.856.

And the relative viability ([18]; first compound 0.8 µM)?
The relative viability was 0.872.

And the relative viability ([18]; first compound 2.53 µM)?
Its relative viability is 0.756.

What about the relative viability ([19]; first compound 0.08 µM) of the same compound?
The relative viability was 0.205.

What about the relative viability ([19]; first compound 0.253 µM) of the same compound?
Its relative viability is 0.181.

And the relative viability ([19]; first compound 0.8 µM)?
The relative viability was 0.164.

What about the relative viability ([19]; first compound 2.53 µM) of the same compound?
Its relative viability is 0.109.

What about the relative viability ([20]; first compound 0.08 µM) of the same compound?
Its relative viability is 0.726.

What about the relative viability ([20]; first compound 0.253 µM) of the same compound?
The relative viability was 0.746.

What about the relative viability ([20]; first compound 0.8 µM) of the same compound?
Its relative viability is 0.675.

What about the relative viability ([20]; first compound 2.53 µM) of the same compound?
Its relative viability is 0.734.

And the relative viability ([21]; first compound 0.08 µM)?
The relative viability was 0.232.

And the relative viability ([21]; first compound 0.253 µM)?
Its relative viability is 0.194.

And the relative viability ([21]; first compound 0.8 µM)?
The relative viability was 0.235.

And the relative viability ([21]; first compound 2.53 µM)?
The relative viability was 0.186.

What about the relative viability ([22]; first compound 0.08 µM) of the same compound?
The relative viability was 0.925.

And the relative viability ([22]; first compound 0.253 µM)?
Its relative viability is 0.752.

What about the relative viability ([22]; first compound 0.8 µM) of the same compound?
Its relative viability is 0.839.

What about the relative viability ([22]; first compound 2.53 µM) of the same compound?
The relative viability was 0.793.

And the relative viability ([23]; first compound 0.08 µM)?
The relative viability was 0.293.

And the relative viability ([23]; first compound 0.253 µM)?
Its relative viability is 0.235.

What about the relative viability ([23]; first compound 0.8 µM) of the same compound?
Its relative viability is 0.281.

What about the relative viability ([23]; first compound 2.53 µM) of the same compound?
The relative viability was 0.272.
